# Entries after “also recorded” stand apart in the source; their conditions may differ.
# Key:
# [1] = test system: pooled plasma of various experimental persons; test: Quick test on pooled plasma mixed with taurolin; type: biochemical, human; settings: for Quick test (%): 30 minutes
# Method: (§1) Therefore, in comparison with known anti-coagulants, the use of taurolin has the advantage that a sufficient blood coagulatability always still remains and, therefore, an overdosing is not possible.
# (§2) Samples of, in each case, 5 ml. of a pooled plasma of various experimental persons were mixed with increasing amounts of taurolin, namely, with amounts of 0 (1), 10 (2), 20 (3), 30 (4), 40 (5) and 50 (6) mg. of taurolin/5 ml. plasma (the figures given in brackets give the sample numbers).
# (§3) The Quick test and the PTT test was carried out for the samples 1 to 6 and the following results (30 minutes) obtained (Table 1): […]
# [2] = test system: pooled plasma of various experimental persons; test: PTT test on pooled plasma mixed with taurolin; type: biochemical, human; settings: for PTT: 30 minutes
# Method: as §1, §2, §3
# [3] = test system: coagulation factor II; test: coagulation factor analysis in plasma; type: biochemical, human
# [4] = test system: coagulation factor V; test: coagulation factor analysis in plasma; type: biochemical, human
# [5] = test system: coagulation factor VII; test: coagulation factor analysis in plasma; type: biochemical, human
# [6] = test system: coagulation factor X; test: coagulation factor analysis in plasma; type: biochemical, human
# [7] = test system: coagulation factor IX; test: coagulation factor analysis in plasma; type: biochemical, human
# [8] = test system: coagulation factor XI; test: coagulation factor analysis in plasma; type: biochemical, human
# [9] = target: T1, coagulation factor XII (Homo sapiens, UniProt P00748); test: coagulation factor analysis in plasma; type: biochemical
# T1 construct: clotting factor activity assay
# T1 sequence (P00748 20-615): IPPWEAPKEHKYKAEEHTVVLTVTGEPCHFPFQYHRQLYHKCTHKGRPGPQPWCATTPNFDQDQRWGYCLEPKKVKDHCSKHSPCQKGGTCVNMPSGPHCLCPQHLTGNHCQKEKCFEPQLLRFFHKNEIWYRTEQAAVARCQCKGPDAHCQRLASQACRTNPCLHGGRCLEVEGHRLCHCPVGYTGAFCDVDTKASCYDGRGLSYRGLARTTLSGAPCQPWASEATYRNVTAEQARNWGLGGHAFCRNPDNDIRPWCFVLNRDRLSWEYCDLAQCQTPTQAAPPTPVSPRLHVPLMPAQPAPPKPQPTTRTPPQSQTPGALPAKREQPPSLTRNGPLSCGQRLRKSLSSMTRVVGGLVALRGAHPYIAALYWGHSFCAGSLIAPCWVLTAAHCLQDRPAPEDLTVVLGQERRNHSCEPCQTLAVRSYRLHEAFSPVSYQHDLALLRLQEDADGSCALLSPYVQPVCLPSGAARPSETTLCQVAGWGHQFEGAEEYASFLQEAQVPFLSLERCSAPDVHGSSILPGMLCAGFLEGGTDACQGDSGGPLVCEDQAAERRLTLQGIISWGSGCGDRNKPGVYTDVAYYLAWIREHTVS
# [10] = test system: coagulation factor VIII; test: coagulation factor analysis in plasma; type: biochemical, human
# [11] = test system: fresh blood; test: fibrin deposition on taurolin-treated cellulose acetate foils in contact with fresh blood; parameters: species or system human
# [12] = solubility; type: physicochemical; settings: 50 mg./5 ml. blood plasma corresponds to a 1% solution; read-out: solubility limit
# [13] = test system: antithrombin III; test: function of antithrombin III; type: biochemical
# [14] = test system: blood plasma; test: suppression of blood coagulation on addition to blood plasma; type: biochemical, human; settings: 5 ml. pooled plasma, up to max. 50 mg.
# Method: as §1, §2
# [15] = test system: blood coagula on the artificial surface; test: deposition of blood coagula on taurolin-contacted artificial surface in vivo; settings: after contact of synthetic resin or metal surface with taurolin, implantation in organism with blood flow
# Description: Therefore, this coagulation action can serve for the use of the taurolin for the treatment of surfaces of medical apparatus which are temporarily introduced into the blood stream, such as e.g. vein catheters (which, untreated, tend to blockage due to blood coagula which again represents a breeding place for bacteria, whereby the danger of a sepsis is brought about). The treatment of the apparatus can be carried out e.g. with an aqueous taurolin solution, especially a 1% aqueous taurolin solution. By means of an intermittent rinsing of vascular catheters, it is, in this way e.g. possible to prevent the coagula formation on the catheter tips.
# [16] = cited from earlier work
# [17] = test system: blood plasma; settings: "Taurolin", Bruckner and Pfirrmann 1985; cited from earlier work
# [18] = 10 mg. taurolin/5 ml. plasma (sample 2)
# [19] = 20 mg. taurolin/5 ml. plasma (sample 3)
# [20] = 30 mg. taurolin/5 ml. plasma (sample 4)
# [21] = 40 mg. taurolin/5 ml. plasma (sample 5)
# [22] = 50 mg. taurolin/5 ml. plasma (sample 6)
# [23] = maximum possible dosaging in the blood
compound,measurement,setting,value
"O=S1(=O)CCN(CN2CCS(=O)(=O)NC2)CN1 [taurolin, 4,4'-Methylene-bis-(tetrahydro-2H-1,2,4-thiadiazine-1,1-dioxide)]",Quick test (%),[1]; [18],65%
same,Quick test (%),[1]; [19],53%
same,Quick test (%),[1]; [20],44%
same,Quick test (%),[1]; [21],39%
same,Quick test (%),[1]; [22],35%
same,Quick value (lowest reached),[1]; [23],≥ 20%
same,PTT,[2]; [18],38.0 s
same,PTT,[2]; [19],43.0 s
same,PTT,[2]; [20],48.8 s
same,PTT,[2]; [21],55.9 s
same,PTT,[2]; [22],61.8 s
same,PTT value (highest reached),[2]; [23],≤ 60 s
same,coagulation factor II,[3]; [18],96%
same,coagulation factor II,[3]; [19],87%
same,coagulation factor II,[3]; [20],90%
same,coagulation factor II,[3]; [21],75%
same,coagulation factor II,[3]; [22],74%
same,coagulation factor V,[4]; [18],121%
same,coagulation factor V,[4]; [19],110%
same,coagulation factor V,[4]; [20],92%
same,coagulation factor V,[4]; [21],81%
same,coagulation factor V,[4]; [22],79%
same,coagulation factor VII,[5]; [18],79%
same,coagulation factor VII,[5]; [19],74%
same,coagulation factor VII,[5]; [20],74%
same,coagulation factor VII,[5]; [21],77%
same,coagulation factor VII,[5]; [22],73%
same,coagulation factor X,[6]; [18],75%
same,coagulation factor X,[6]; [19],65%
same,coagulation factor X,[6]; [20],56%
same,coagulation factor X,[6]; [21],53%
same,coagulation factor X,[6]; [22],50%
same,coagulation factor IX,[7]; [18],153%
same,coagulation factor IX,[7]; [19],81%
same,coagulation factor IX,[7]; [20],63%
same,coagulation factor IX,[7]; [21],65%
same,coagulation factor IX,[7]; [22],68%
same,coagulation factor XI,[8]; [18],301%
same,coagulation factor XI,[8]; [19],197%
same,coagulation factor XI,[8]; [20],140%
same,coagulation factor XI,[8]; [21],83%
same,coagulation factor XI,[8]; [22],47%
same,direct action on the Factor XII of the coagulation system,[9],marked direct action
same,activity at 2000 µg/mL,"[9]; human, 10 mg. taurolin/5 ml. plasma (sample 2)",177%
same,activity at 4000 µg/mL,"[9]; human, 20 mg. taurolin/5 ml. plasma (sample 3)",77%
same,activity at 6000 µg/mL,"[9]; human, 30 mg. taurolin/5 ml. plasma (sample 4)",64%
same,activity at 8000 µg/mL,"[9]; human, 40 mg. taurolin/5 ml. plasma (sample 5)",55%
same,activity at 10000 µg/mL,"[9]; human, 50 mg. taurolin/5 ml. plasma (sample 6)",61%
same,coagulation factor VIII,[10]; [18],48%
same,coagulation factor VIII,[10]; [19],21%
same,coagulation factor VIII,[10]; [20],13%
same,coagulation factor VIII,[10]; [21],6%
same,coagulation factor VIII,[10]; [22],6%
same,blood coagulation or fibrin deposition on the wall,"[11]; cellulose acetate foil contacted with taurolin/blood plasma mixture (taurolin 1% in plasma), rinsed, fresh blood 30 minutes at 37° C.",no blood coagulation or fibrin deposition on the wall
same,fibrin fibre deposition on the surface (electron raster photographs),"[11]; cellulose acetate foil treated with 15 aqueous solution of taurolin 30 minutes at 37° C., then fresh blood 30 minutes at 37° C.",no fibrin fibre deposition on the surface could be ascertained
same,solubility,[12],10000 µg/mL
same,function of antithrombin III,[13],inhibits dependent upon concentration
same,suppression of blood coagulation,[14],not completely suppressed
same,deposition of blood coagula on the artificial surface in vivo,[15],continuously effectively prevents the deposition of blood coagula; also recorded: effectively continuously prevents the deposition of blood coagula
same,solubility in water,[16],about 1%
same,influence on blood coagulation as stated in the literature,[17],does not influence the blood coagulation
heparin,suppression of blood coagulation,[14],completely suppressed

# Reference: patent US5077281A, “Novel use of taurolin” (priority 1985, dated 1991)
